In assay [1] the target is full length p300 (Homo sapiens (Human), UniProt Q09472). The assay can be described thus: full length p300 SPA assay. Type of assay: biochemical. Particulars: average of at least 2 replicate titrations, read-out: FL P300 IC50. The procedure: Reactions were initiated with 12.5 μL 2 μM biotinylated H3(1-21) peptide (New England Peptide) and run for 1 hr at RT, then quenched with 20 μL stop solution (200 mM Tris pH 8.0, 200 mM EDTA, 2M NaCl, 160 μM anacardic acid). 35 μL of the reaction volume was transferred to a 384-well streptavidin FlashPlate (PerkinElmer) using a Bravo liquid handler (Velocity 11) and incubated for 1.5 hr at RT. Plates were aspirated, washed with 95 μL wash buffer (15 mM Tris pH 8.5, 0.069 μM Brij-35), aspirated, sealed, and scintillation counts read on a Topcount (PerkinElmer). Data were analyzed in Genedata to determine inhibitor IC50 values.
Sequence of full length p300 (Q09472 whole entry): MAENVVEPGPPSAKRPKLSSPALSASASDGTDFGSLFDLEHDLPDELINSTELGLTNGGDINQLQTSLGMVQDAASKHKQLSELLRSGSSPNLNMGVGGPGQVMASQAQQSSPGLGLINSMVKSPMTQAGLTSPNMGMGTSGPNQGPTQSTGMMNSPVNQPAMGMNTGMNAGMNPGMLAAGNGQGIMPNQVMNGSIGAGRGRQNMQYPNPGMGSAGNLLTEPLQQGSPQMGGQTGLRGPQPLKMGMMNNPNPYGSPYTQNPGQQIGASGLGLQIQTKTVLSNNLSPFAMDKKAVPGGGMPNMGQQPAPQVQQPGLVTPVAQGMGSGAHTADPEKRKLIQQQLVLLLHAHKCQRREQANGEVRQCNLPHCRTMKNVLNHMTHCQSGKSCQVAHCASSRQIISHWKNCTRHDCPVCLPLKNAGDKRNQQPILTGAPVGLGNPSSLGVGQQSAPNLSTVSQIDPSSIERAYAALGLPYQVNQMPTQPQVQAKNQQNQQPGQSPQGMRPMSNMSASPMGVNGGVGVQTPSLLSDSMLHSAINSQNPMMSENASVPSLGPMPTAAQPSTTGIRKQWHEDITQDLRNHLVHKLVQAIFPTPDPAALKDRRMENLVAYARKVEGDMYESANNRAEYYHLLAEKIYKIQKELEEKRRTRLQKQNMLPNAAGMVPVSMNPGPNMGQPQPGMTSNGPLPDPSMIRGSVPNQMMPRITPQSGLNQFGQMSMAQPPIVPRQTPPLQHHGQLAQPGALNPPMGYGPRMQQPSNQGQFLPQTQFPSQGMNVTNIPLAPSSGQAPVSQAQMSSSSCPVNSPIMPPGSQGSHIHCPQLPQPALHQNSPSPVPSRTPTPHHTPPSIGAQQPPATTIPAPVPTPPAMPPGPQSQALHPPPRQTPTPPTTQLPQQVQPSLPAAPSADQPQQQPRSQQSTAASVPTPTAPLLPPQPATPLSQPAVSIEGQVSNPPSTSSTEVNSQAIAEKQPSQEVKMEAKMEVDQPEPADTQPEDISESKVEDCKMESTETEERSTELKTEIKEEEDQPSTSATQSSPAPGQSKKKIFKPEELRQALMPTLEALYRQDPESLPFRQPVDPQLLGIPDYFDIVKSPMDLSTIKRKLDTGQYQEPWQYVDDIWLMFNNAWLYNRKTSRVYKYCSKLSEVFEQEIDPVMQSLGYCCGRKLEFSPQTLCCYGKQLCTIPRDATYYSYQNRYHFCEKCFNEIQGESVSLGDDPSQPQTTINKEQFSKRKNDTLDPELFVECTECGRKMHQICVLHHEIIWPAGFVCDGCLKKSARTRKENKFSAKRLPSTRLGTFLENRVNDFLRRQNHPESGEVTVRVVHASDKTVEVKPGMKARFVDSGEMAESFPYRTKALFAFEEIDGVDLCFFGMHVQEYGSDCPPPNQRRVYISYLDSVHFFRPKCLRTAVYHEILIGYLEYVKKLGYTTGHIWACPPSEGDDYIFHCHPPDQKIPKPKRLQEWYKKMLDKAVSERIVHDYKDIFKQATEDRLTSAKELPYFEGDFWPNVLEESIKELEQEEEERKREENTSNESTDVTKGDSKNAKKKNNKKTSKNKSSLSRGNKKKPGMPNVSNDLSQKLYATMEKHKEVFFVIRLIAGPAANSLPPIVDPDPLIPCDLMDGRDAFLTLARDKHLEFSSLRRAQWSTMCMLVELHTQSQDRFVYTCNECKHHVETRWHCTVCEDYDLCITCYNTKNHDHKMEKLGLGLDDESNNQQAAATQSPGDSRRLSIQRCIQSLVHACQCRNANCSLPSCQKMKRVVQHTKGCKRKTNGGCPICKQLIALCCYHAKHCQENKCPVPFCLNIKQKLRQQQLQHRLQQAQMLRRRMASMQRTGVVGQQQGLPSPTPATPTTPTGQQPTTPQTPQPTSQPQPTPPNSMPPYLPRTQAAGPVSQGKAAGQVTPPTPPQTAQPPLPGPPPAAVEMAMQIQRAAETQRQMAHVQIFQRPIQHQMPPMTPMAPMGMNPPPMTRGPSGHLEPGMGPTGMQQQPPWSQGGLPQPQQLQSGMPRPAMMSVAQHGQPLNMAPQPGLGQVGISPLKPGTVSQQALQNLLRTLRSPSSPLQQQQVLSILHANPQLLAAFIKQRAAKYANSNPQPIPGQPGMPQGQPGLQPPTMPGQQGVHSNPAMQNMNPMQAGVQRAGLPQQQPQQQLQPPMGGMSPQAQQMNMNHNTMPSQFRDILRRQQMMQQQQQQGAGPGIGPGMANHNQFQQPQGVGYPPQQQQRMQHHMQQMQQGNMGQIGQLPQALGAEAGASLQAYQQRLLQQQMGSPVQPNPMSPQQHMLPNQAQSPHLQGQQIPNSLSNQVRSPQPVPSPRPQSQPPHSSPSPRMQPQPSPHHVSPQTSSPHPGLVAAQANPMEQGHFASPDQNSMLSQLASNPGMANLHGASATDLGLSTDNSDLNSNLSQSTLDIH
The full length p300 SPA assay was run following the same protocol as p300 HAT SPA assay, but used 6 nM purified full length p300 (purchased from Active Motif) in place of the purified p300-HAT domain.

In assay [2] the test system is acetylation of chromatin at H3K18 (catalyzed by p300 and CBP) in HCT-116 cells. Description: H3K18Ac MSD cellular assay. The class given is cell-based. Particulars: 2 hr treatment, average of at least 2 replicate titrations. In short, it runs like this:
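Cellular H3K18 acetylation quantified by electrochemiluminescent MSD readout, lysates captured on anti-total-histone plates and probed with anti-H3K18ac plus Sulfo-Tag secondary. Before lysis, HCT-116 cells in RPMI/10% FBS, seeded the prior night, were exposed to compounds for 2 h at 37 °C.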

Assay [3] deals with p300 HAT domain (residues 1287-1666) (Homo sapiens (Human), UniProt Q09472). The assay can be described thus: p300 HAT SPA assay (scintillation proximity assay, acetylation of biotinylated H3(1-21) peptide). Type of assay: biochemical. Conditions: p300 HAT domain; average of at least 2 replicate titrations; read-out: P300 HAT SPA IC50. Put shortly:
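Scintillation proximity readout of acetylated biotin-H3(1-21) captured on streptavidin plates after 1.5 hr at RT; enzyme was Ni2+/anion-exchange-purified HAT domain in 20 mM Hepes pH 7.5. Inhibitor IC50s calculated from the data.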
Background: SPA uses beads or plates that emit light when radiolabelled molecules are held near them.

Sequence of p300 HAT domain (residues 1287-1666) (Q09472 1287-1666): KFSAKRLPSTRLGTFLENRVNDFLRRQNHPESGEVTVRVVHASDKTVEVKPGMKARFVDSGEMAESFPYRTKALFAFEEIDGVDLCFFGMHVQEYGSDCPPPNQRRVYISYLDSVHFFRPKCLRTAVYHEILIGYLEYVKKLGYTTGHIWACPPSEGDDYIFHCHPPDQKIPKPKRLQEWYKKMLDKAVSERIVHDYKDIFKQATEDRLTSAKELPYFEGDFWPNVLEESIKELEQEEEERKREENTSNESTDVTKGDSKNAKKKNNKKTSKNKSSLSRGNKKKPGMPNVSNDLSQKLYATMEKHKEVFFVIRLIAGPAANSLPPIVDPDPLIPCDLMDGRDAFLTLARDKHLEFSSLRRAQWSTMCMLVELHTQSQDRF

In the case of `Cc1nc(C(=O)C(NCCc2ccc(Cl)cc2)c2ccccc2)c2ccccn12` (single isomer, unassigned) [45 Isomer 1], the values for the IC50 in assay [1] and in assay [3] were 219 nM and 5550 nM, respectively. It took 13400 nM to reach a half-maximal effect in assay [2] (Homo sapiens, HCT-116, 2 h) (EC50).

For `O=C(c1cnc2ccccn12)C(NCCc1ccc(Cl)cc1)c1ccccc1` (single isomer, unassigned) [46 Isomer 2], the IC50 is 283 nM in assay [1] and 6550 nM in assay [3]. The same compound returned an EC50 in assay [2] (Homo sapiens, HCT-116, 2 h) of 29400 nM.

`CN(C)C(=O)CCc1ccc2c(C(=O)C(NCCc3ccc(F)cc3)c3ccccc3)c[nH]c2c1` (single isomer, unassigned) [49 Isomer 2]: the IC50 was 55.3 nM in assay [1] and 2210 nM in assay [3]. In assay [2] (Homo sapiens, HCT-116, 2 h), this compound returned an EC50 of 754 nM.

`COc1ccc2c(C(=O)C(NCCc3ccc(S(N)(=O)=O)cc3)c3ccccc3)c[nH]c2c1` (single isomer, unassigned) [51 Isomer 2]: the IC50 stood at 25.5 nM in assay [1] and 1290 nM in assay [3]. Moreover, the EC50 in assay [2] (Homo sapiens, HCT-116, 2 h) came out at 324 nM.

`COc1ccc2c(C(=O)C(NCCc3ccc(Cl)cc3)c3ccccc3)c[nH]c2c1` (single isomer, unassigned) [60 Isomer 2]: the IC50 worked out at 178 nM in assay [1] and 1090 nM in assay [3]. This compound also yielded an EC50 in assay [2] (Homo sapiens, HCT-116, 2 h) of 546 nM.

With `O=C(c1c[nH]c2cc(OCc3ccccc3)ccc12)C(NCCc1ccc(F)cc1)c1ccccc1` (single isomer, unassigned) [61 Isomer 2], the results for the half-maximal inhibitory concentration (IC50) in assay [1] and in assay [3] were 49.7 nM and 1070 nM, respectively. The same compound returned an EC50 in assay [2] (Homo sapiens, HCT-116, 2 h) of 825 nM.

Turning to `CN(C)C(=O)Cc1ccc2c(C(=O)C(NCCc3ccc(C#N)cc3)c3ccccc3)c[nH]c2c1` (single isomer, unassigned) [63 Isomer 1], the IC50 in assay [1] was 8.78 nM; in assay [3], 382 nM. In assay [2] (Homo sapiens, HCT-116, 2 h), this compound returned an EC50 of 337 nM.

With `CCNC(=O)c1ccc2c(C(=O)C(NCC(C)c3ccc(C#N)cc3)c3ccccc3)cnn2c1` (single isomer, unassigned) [69 Isomer 4], the IC50 in assay [1] was 17.9 nM; in assay [3], 20.7 nM. The compound also showed an EC50 in assay [2] (Homo sapiens, HCT-116, 2 h) of 43.9 nM.

For `CCNC(=O)c1ccc2c(C(=O)C(NCC(C)c3ccc(C#N)cc3)c3ccccc3)c[nH]c2c1` (single isomer, unassigned) [75 Isomer 4], the IC50 in assay [1] came out at 0.711 nM; in assay [3], 8.76 nM. Further, the EC50 in assay [2] (Homo sapiens, HCT-116, 2 h) was found to be 19.3 nM.

For the compound `Cn1cc(-c2ccc3c(C(=O)C(NCCc4ccc(F)cc4)c4ccccc4)c[nH]c3c2)cn1` (single isomer, unassigned) [78 Isomer 2], the figures for the IC50 in assay [1] and in assay [3] were 10.9 nM and 716 nM, respectively. The same compound gave a concentration giving a half-maximal response (EC50) in assay [2] (Homo sapiens, HCT-116, 2 h) of 104 nM.

With `COc1ccc(CCNC(C(=O)c2c[nH]c3c(C)cccc23)c2ccccc2)cc1` (single isomer, unassigned) [80 Isomer 2], the IC50 in assay [1] came to 33.5 nM; in assay [3], 1020 nM. This compound also gave an EC50 in assay [2] (Homo sapiens, HCT-116, 2 h) of 817 nM.

Take `O=C(c1c[nH]c2cc(-c3cccnc3)ccc12)C(NCCc1ccc(F)cc1)c1ccccc1` (single isomer, unassigned) [81 Isomer 2]: the IC50 was 14.6 nM in assay [1] and 1150 nM in assay [3]. In assay [2] (Homo sapiens, HCT-116, 2 h), this compound came in with an EC50 of 193 nM.

With `O=C(c1c[nH]c2cc(-c3ccncc3)ccc12)C(NCCc1ccc(F)cc1)c1ccccc1` (single isomer, unassigned) [82 Isomer 2], the values for the IC50 in assay [1] and in assay [3] were 18.2 nM and 875 nM, respectively. It took 128 nM to reach a half-maximal effect in assay [2] (EC50).

Turning to `CNC(=O)Cn1cc(-c2ccc3c(C(=O)C(NCCc4ccc(Cl)cc4)c4ccccc4)c[nH]c3c2)cn1` (single isomer, unassigned) [87 Isomer 2], the IC50 is 11.6 nM in assay [1] and 200 nM in assay [3]. The midpoint of the response in assay [2] (Homo sapiens, HCT-116, 2 h), the EC50, lay at 113 nM.

For `CC(CNC(C(=O)c1cnn2cc(-c3cnn(C)c3)ccc12)c1ccccc1)c1ccc(C#N)cc1` (single isomer, unassigned) [102 Isomer 4], the IC50 was 0.818 nM in assay [1] and 9.36 nM in assay [3]. The same compound came in with a half-maximal effective concentration (EC50) in assay [2] (Homo sapiens, HCT-116, 2 h) of 43 nM.

Turning to `O=C(c1c[nH]c2cc(-n3ccnc3)ccc12)C(NCCc1ccc(F)cc1)c1ccccc1` (single isomer, unassigned) [117 Isomer 1], the IC50 in assay [1] came out at 14.2 nM; in assay [3], 839 nM. The compound also had an EC50 in assay [2] (Homo sapiens, HCT-116, 2 h) of 162 nM.

`O=C(c1c[nH]c2cc(-n3cccn3)ccc12)C(NCCc1ccc(F)cc1)c1ccccc1` (single isomer, unassigned) [118 Isomer 2]: the IC50 came out at 81.3 nM in assay [1] and 2650 nM in assay [3]. This compound also came in with an EC50 in assay [2] (Homo sapiens, HCT-116, 2 h) of 893 nM.

Turning to `CN1CCN(c2ccc3c(C(=O)C(NCCc4ccc(F)cc4)c4ccccc4)c[nH]c3c2)CC1` (single isomer, unassigned) [123 Isomer 2], the IC50 in assay [1] was found to be 12.3 nM; in assay [3] it was 808 nM. This compound also gave an EC50 in assay [2] (Homo sapiens, HCT-116, 2 h) of 216 nM.

In the case of `CN1CCC(Oc2ccc3c(C(=O)C(NCCc4ccc(C#N)cc4)c4ccccc4)c[nH]c3c2)CC1` (single isomer, unassigned) [126 Isomer 2], the half-inhibitory concentration (IC50) in assay [1] was 2.19 nM; in assay [3] it was 36.2 nM. The compound also yielded an EC50 in assay [2] (Homo sapiens, HCT-116, 2 h) of 154 nM.

As to `O=C(O)c1ccc(CCNC(C(=O)c2c[nH]c3ccccc23)c2ccccc2)cc1` (single isomer, unassigned) [132 Isomer 1], the IC50 came out at 63.3 nM in assay [1] and 1830 nM in assay [3]. Moreover, in assay [2] (Homo sapiens, HCT-116, 2 h), the EC50 came out at 4450 nM.

As for `NC(=O)c1ccc(CCNC(C(=O)c2c[nH]c3ccccc23)c2ccccc2)cc1` (single isomer, unassigned) [133 Isomer 2], the IC50 in assay [1] came to 101 nM; in assay [3] it was 2120 nM. The same compound registered an EC50 in assay [2] (Homo sapiens, HCT-116, 2 h) of 1440 nM.

As for `CNC(=O)c1ccc(CCNC(C(=O)c2c[nH]c3ccccc23)c2ccccc2)cc1` (single isomer, unassigned) [134 Isomer 2], the IC50 in assay [1] amounted to 151 nM; in assay [3], 5160 nM. The compound further yielded an EC50 in assay [2] (Homo sapiens, HCT-116, 2 h) of 1570 nM.

On to `CCNC(=O)c1ccc2c(C(=O)[C@@H](NCCc3ccc(C#N)cc3)c3ccccc3)c[nH]c2c1` (single isomer, unassigned) [146 Isomer 2], for which the concentration for half-maximal inhibition (IC50) came out at 14 nM in assay [1] and 26 nM in assay [3]. This compound also registered an EC50 in assay [2] of 36.6 nM.

In the case of `CN(C)C(=O)c1ccc2c(C(=O)C(NCCc3ccc(Cl)cc3Cl)c3ccccc3)c[nH]c2c1` (single isomer, unassigned) [152 Isomer 2], the IC50 in assay [1] was 28.7 nM; in assay [3], 1260 nM. Besides, a half-maximal response in assay [2] (Homo sapiens, HCT-116, 2 h) (EC50) required 327 nM.

In the case of `N#Cc1ccc(CCNC(C(=O)c2c[nH]c3cc(C(=O)O)ccc23)c2ccccc2)cc1` (single isomer, unassigned) [155 Isomer 1], the values for the IC50 in assay [1] and in assay [3] were 77.3 nM and 2240 nM, respectively. The same compound came in with an EC50 in assay [2] (Homo sapiens, HCT-116, 2 h) of 16700 nM.

As for `CNC(=O)c1ccc2c(C(=O)C(NCCc3ccc(C#N)cc3)c3ccccc3)c[nH]c2c1` (single isomer, unassigned) [156 Isomer 2], the IC50 in assay [1] was < 2 nM; in assay [3], 17 nM. The compound also registered an EC50 in assay [2] (Homo sapiens, HCT-116, 2 h) of 46.6 nM.

As a reminder, the IC50 is the concentration that inhibits the measured activity by half. The EC50 is the concentration needed to bring the measured effect to its halfway point. Low readings indicate an effect from little substance, high ones a need for much substance.

Source of the values: patent US11414384B2, “P300/CBP hat inhibitors” (Constellation Pharmaceuticals, Inc., priority 2018, dated 2022).
